Laboratory results reported in the supplement of paper PMC10307832.

Assays:
Experiment in all cases: relative viability (nuclei count vs DMSO), 5 days (fraction); higher = more cells survive
[1] = compound: COC1=CC=C(C=C1)CN2C=CC3=C2C=C(C=C3)C(=O)NO + O=C(c1cc(Cc2n[nH]c(=O)c3ccccc23)ccc1F)N1CCN(C(=O)C2CC2)CC1 [Olaparib] (partner 8 µM)
In short: (§1)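 Lung cancer cell lines were pin-tool dosed in 1536-well plates on the day after seeding, with either a lone drug or a fixed anchor-drug dose plus five library-drug doses (not always all listed) in √10 steps. Nuclei were counted on 4× images after 5 days. Relative viability is the ratio of treated-well to vehicle-well nuclei counts, with each value a median of duplicate plates.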

Veliparib + Tozasertib = compound: C[C@]1(c2nc3c(C(N)=O)cccc3[nH]2)CCCN1 [Veliparib] + Cc1cc(Nc2cc(N3CCN(C)CC3)nc(Sc3ccc(NC(=O)C4CC4)cc3)n2)n[nH]1 [Tozasertib] (partner 0.1 µM)
In short: as §1

Veliparib + Decitabine = compound: C[C@]1(c2nc3c(C(N)=O)cccc3[nH]2)CCCN1 [Veliparib] + Nc1ncn([C@H]2C[C@H](O)[C@@H](CO)O2)c(=O)n1 [Decitabine] (partner 2 µM)
In short: as §1

[2] = compound: COC1=CC=C(C=C1)CN2C=CC3=C2C=C(C=C3)C(=O)NO + CS(=O)(=O)CCNCc1ccc(-c2ccc3ncnc(Nc4ccc(OCc5cccc(F)c5)c(Cl)c4)c3c2)o1 [Lapatinib] (partner 2 µM)
In short: as §1

| Cell Line | relative viability ([1]; first compound 0.08 µM) | relative viability ([1]; first compound 0.253 µM) | relative viability ([1]; first compound 0.8 µM) | relative viability ([1]; first compound 2.53 µM) | relative viability ([1]; first compound 8 µM) | relative viability (Veliparib + Tozasertib; first compound 0.02 µM) | relative viability (Veliparib + Tozasertib; first compound 0.06325 µM) | relative viability (Veliparib + Tozasertib; first compound 0.2 µM) | relative viability (Veliparib + Tozasertib; first compound 0.6325 µM) | relative viability (Veliparib + Tozasertib; first compound 2 µM) | relative viability (Veliparib + Decitabine; first compound 0.02 µM) | relative viability (Veliparib + Decitabine; first compound 0.06325 µM) | relative viability (Veliparib + Decitabine; first compound 0.2 µM) | relative viability (Veliparib + Decitabine; first compound 0.6325 µM) | relative viability (Veliparib + Decitabine; first compound 2 µM) | relative viability ([2]; first compound 0.08 µM) | relative viability ([2]; first compound 0.253 µM) | relative viability ([2]; first compound 0.8 µM) | relative viability ([2]; first compound 2.53 µM) | relative viability ([2]; first compound 8 µM) |
| --- | --- | --- | --- | --- | --- | --- | --- | --- | --- | --- | --- | --- | --- | --- | --- | --- | --- | --- | --- | --- |
| 201T | 0.846 | 0.833 | 0.881 | 0.844 | 0.832 | 0.935 | 0.952 | 0.961 | 0.946 | 0.921 | 0.886 | 0.844 | 0.795 | 0.795 | 0.785 | 1 | 1.03 | 1.06 | 1.05 | 0.969 |
| A549 | – | 0.38 | 0.39 | 0.337 | 0.252 | – | – | – | – | – | 0.202 | 0.137 | 0.0868 | 0.106 | 0.0789 | – | 0.931 | 1.09 | 0.953 | 0.915 |
| A-427 | 0.251 | – | 0.71 | 0.711 | 0.724 | – | 0.232 | 0.181 | 0.198 | 0.283 | 0.557 | 0.473 | 0.593 | 0.492 | 0.546 | – | 1.07 | 1.1 | 0.995 | 0.909 |
| ABC-1 | – | 0.745 | 0.73 | 0.734 | 0.87 | – | 0.196 | 0.137 | 0.175 | 0.17 | – | – | 0.82 | 1.07 | 1.06 | 0.618 | 1.13 | 1.21 | 1.3 | 1.13 |
| BEN | 1.09 | 1.03 | 0.95 | 0.913 | 0.924 | 0.456 | 0.558 | 0.524 | 0.477 | 0.481 | 0.572 | 0.581 | 0.613 | 0.565 | 0.624 | 0.552 | 0.552 | 0.637 | 0.78 | 0.621 |
| CAL-12T | 0.674 | 0.675 | 0.709 | 0.735 | 0.649 | 0.317 | 0.376 | 0.327 | 0.318 | 0.369 | – | – | – | – | – | 0.215 | – | 0.715 | 0.755 | 0.605 |
| COR-L23 | 0.256 | 0.382 | 0.292 | 0.369 | 0.286 | 0.229 | 0.249 | 0.257 | 0.216 | 0.172 | 0.406 | 0.315 | 0.255 | 0.287 | 0.289 | 0.736 | 1.07 | 0.937 | 1.02 | 0.84 |
| COR-L 105 | 0.558 | 0.743 | 0.808 | 0.715 | 0.706 | 0.35 | 0.307 | 0.434 | 0.313 | 0.346 | 0.634 | 0.66 | 0.744 | 0.59 | 0.599 | – | 0.367 | 0.37 | 0.341 | 0.296 |
| Calu-6 | – | 0.544 | 0.556 | 0.602 | 0.51 | – | – | – | – | – | – | – | – | – | – | 0.432 | 1.05 | 1.06 | 1.1 | 1.03 |
| ChaGo-K-1 | – | 0.459 | 0.424 | 0.409 | 0.324 | 0.206 | 0.217 | 0.219 | 0.199 | 0.24 | 0.446 | 0.453 | 0.411 | 0.439 | 0.422 | – | – | – | – | – |
| EBC-1 | – | 0.656 | 0.748 | 0.695 | 0.633 | – | – | – | – | – | – | – | – | – | – | – | 0.226 | 0.211 | 0.232 | 0.208 |
| EKVX | – | 0.802 | 0.739 | 0.868 | 0.758 | 0.333 | 0.362 | 0.426 | 0.375 | 0.37 | – | 0.319 | 0.364 | 0.338 | 0.294 | 0.166 | 0.18 | 0.185 | 0.203 | 0.225 |
| EMC-BAC-2 | 0.315 | – | 0.524 | 0.471 | 0.445 | 0.306 | 0.29 | 0.339 | 0.286 | 0.286 | 0.997 | – | 0.936 | 0.874 | 0.984 | 0.613 | 0.884 | 0.954 | 0.906 | 0.819 |
| EPLC-272H | – | 0.716 | 0.981 | 0.916 | 0.686 | 0.273 | 0.227 | 0.224 | 0.2 | 0.249 | – | 0.312 | 0.387 | 0.331 | 0.393 | 0.199 | 0.974 | 1.04 | 0.974 | 0.728 |
| H3255 | 0.549 | 0.482 | 0.605 | 0.579 | 0.532 | 0.624 | 0.664 | 0.704 | 0.612 | 0.538 | 0.615 | 0.538 | 0.713 | 0.567 | 0.589 | 0.184 | 0.247 | 0.221 | 0.238 | 0.226 |
| HARA | – | 0.835 | 1.09 | 0.711 | 0.762 | 0.119 | 0.117 | 0.117 | 0.0991 | 0.129 | 0.565 | – | 0.47 | 0.499 | 0.311 | 0.424 | 0.891 | 0.815 | 0.712 | 0.679 |
| HCC-15 | 0.635 | 0.71 | 0.729 | 0.846 | 0.728 | 0.361 | 0.356 | 0.464 | 0.362 | 0.354 | 0.572 | 0.56 | 0.589 | 0.562 | 0.502 | 0.458 | 0.875 | 0.843 | 0.842 | 0.73 |
| HCC-44 | 0.974 | 0.931 | 1.01 | 1 | 1.06 | 1.04 | – | 1.15 | 0.956 | 0.919 | 0.941 | 0.797 | 0.907 | 0.857 | 0.902 | 0.777 | 0.924 | 0.944 | 0.921 | 0.963 |
| HCC-78 | 0.748 | 0.776 | 0.815 | 0.968 | 0.535 | 0.402 | 0.381 | 0.404 | 0.35 | 0.404 | 0.637 | 0.589 | 0.603 | 0.517 | 0.491 | – | 0.706 | 0.731 | 0.715 | 0.733 |
